Where a name gives a salt, the structure may show the parent alone. Read-outs that look alike come from different tables or passages of the source.
Columns and labels:
GP IIb-IIIa (αIIbβ3) = target: T1, GP IIb-IIIa (αIIbβ3) (Homo sapiens, UniProt P05106+P08514); experiment: Fibrinogen binding to immobilized GP IIb-IIIa (αIIbβ3)
T1 construct: purchased Calbiochem
Protocol: (§1) Nonbound fibrinogen was removed by five washes with binding buffer. Avidin conjugated to alkaline phosphatase (Sigma), diluted in binding buffer, was added and incubated for two hours at 37° C. The plates were washed five times with binding buffer, and after addition of the substrate PNPP (Pierce), the enzyme activity was measured by the absorbance at 405 nm.

[1] = Cell proliferation and cytotoxicity MTT assay, HMVEC; assay type: cell-based; details: human, HMVEC endothelial cells
Protocol: (§2) The wells of microtiter plates were seeded with 2000 cells/well (T24), 2500 cells/well (HT29), 5000 cells/well (HMVEC)or 2500 cells/well (IAFp2) in 100 μL, followed by an overnight culture for cell adhesion. […] Following culture for 72 hours, 3-(4,5-dimethyl-2-thiazolyl)-2,5-diphenyltetrazolium bromide (MTT; Sigma) at 2 mg/ml was added to each well (50 μL/well) and further incubated for 4 hours at 37° C. The medium was flicked out and 200 μL of a 1:1 solution of ethanol:acetone followed by 25 μL of glycine buffer (0.1 M glycine, 0.1M NaCl, pH 10.5) is added and the color measured by the absorbance at 570 nm.

placental αvβ3 = target: T2, placental αvβ3 (Homo sapiens, UniProt P05106+P06756); experiment: Fibrinogen binding to immobilized αvβ3
T2 construct: purified active GP IIb-IIIa (Calbiochem) or olacental αvβ3 at 0.5 μg/ml; from tissue; host or cells: placenta
Protocol: as §1

[2] = Cell proliferation and cytotoxicity MTT assay, IAFp2; assay type: cell-based; details: IAFp2 skin fibroblasts, read-out: Cell proliferation and cytotoxicity IC50, IAFp2 Skin Fibroblast
Protocol: as §2

[3] = system: Chick Chorioallantoic Membrane (CAM) capillary formation; experiment: Chick chorioallantoic membrane (CAM) mesh assay; assay type: in vivo, chicken; details: Day 12, 24 hr treatment
Protocol: Fertilized white leghorn chicken eggs (SPAFAS Inc., Norwich, Conn.) were received at day 0 and incubated for 3 days at 37 C with constant humidity. On day 3, eggs were rinsed with 70% ethanol and opened into 100 mm^2 tissue culture coated Petri dishes under aseptic conditions. The embryos were then returned to a humidified 38 C incubator for 7-9 additional days.
Vitrogen (Collagen Biomaterials, Palo Alto, Calif.) at a final concentration of 0.73 mg/ml and Matrigel (Becton Dickinson, Bedford, Mass.) at a final concentration of 10 mg/ml was directly pipetted onto Nylon meshes with 250 μm^2 openings which were cut into 4 mm×4 mm squares and autoclaved. Polymerization of meshes were under aseptic conditions, on bacteriological Petri dishes. The polymerization conditions for each substrate were identical; after mixing with or without […] of VPF/VEGF165 (Peprotech, Rocky Hill, N.J.) and/or compounds of interest, 40 μl were pipetted onto each mesh in a bacteriological Petri dish.
The Petri dish was placed in a humidified 37 C incubator with 5% CO2 for 30 minutes to allow polymerization followed by an incubation at 4 C for 2 hours.
In a tissue culture enclosure, meshes were placed onto the periphery of the CAM of a day 12-14 embryo, excluding areas containing major vessels. The embryos were then returned to the humidified 38 C incubator with 3% CO2 for 24 to 48 additional hours.
Embryos were removed from the incubator and meshes were viewed under a dissecting microscope for gross evaluation. Injection of 400 μl FITC dextran, MW 2,000,000 (Sigma, St. Louis, Mo.) through glass microcapillary tubes by infusion into the umbilical vein was performed at a rate of 200 μl per minute. The FITC dextran was allowed to circulate for 5 minutes and 3.7% formaldehyde in PBS was applied directly on each mesh. The embryos were then incubated at 4 C for 5 minutes and the meshes were dissected off the CAM and fixed in 3.7% formaldehyde for 10 minutes to overnight.
After fixation, meshes were mounted on slides with 90% glycerol in PBS and visualized on an inverted fluorescence microscope. A Nikon Diaphot with a Sony DXC-151A camera attached to the side port was used for capture of images and analysis was with the NIH Image 1.61 software program. For each mesh, 5 random staggered images (approximately 600 μm each) were captured. The areas of high intensity were highlighted and measured. Results are expressed as ability to suppress capillary formation after subtraction from negative control. Values were calculated as i inhibition, considering 100% the capillary density achieved by VPF in the presence of vitrogen alone minus the background levels in the absence of VPF. Negative values indicate angiogenic stimulation above the VPF positive control.

[4] = Cell proliferation and cytotoxicity MTT assay, HT29; assay type: cell-based; details: human, HT29 tumor cells
Protocol: as §2

[5] = Cell proliferation and cytotoxicity MTT assay, T24; assay type: cell-based; details: human, T24 tumor cells
Protocol: as §2

α5β1 = target: T3, α5β1 (Homo sapiens, UniProt P05556+P08648); experiment: Cell attachment assay, K562; assay type: cell-based; details: ligand fibronectin, read-out: Cell attachment IC50, α5β1, Fibro-nectin
T3 construct: Cell Line; K562 transfected αvβ3; HT29; K562; endogenous in cells; host or cells: K562
Protocol: The wells of 96-well plates (Immunolon) were coated, by incubation overnight at 4° C., with 5 μg/ml of vitronectin or osteopontin, 10 μg/ml of fibronectin or 10 mg/ml BSA in PBS. The protein solution was flicked out and the wells were blocked with 10 mg/ml BSA (0.1 ml) for 1-2 hours at 37° C. Cells [HT29 (ATOC), HMVEC (Cell Systems), K562 or K562 transfected with αvβ3 (Blystone et al., 1994)] were loaded with a fluorescent marker, 5-chloromethylfluorescein diacetate (Molecular Probes, Eugene, Or) for 1 hour at 37° C., then incubated in fresh medium without the fluorescent marker for 1 hour.
(§3) Cells were lifted with trypsin-EDTA and washed two times with Hank's balanced salt solution (Sigma) supplemented with 1 mM MgCl2. Cells (75,000 cells/well) were added to coated plates in triplicate and allowed to attach at 37° C. for 1 hour in the presence or absence of specific antibodies at 5 μ/ml or increasing concentrations of compounds of interest (0.001-10 μM). Nonadherent cells were removed by gentle washing twice with PBS. The adherent cells were solubilized with 1% triton X-100 and detected using a fluorescence plate reader (Perkin Elmer).
The number of attached cells was calculated based upon starched curves for each cell line used in the experiment. Non-specific cell attachment (attachment to wells coated with BSA) was always less than 5%. The results presented are the average of triplicate samples and representative of several separate assays.

αvβ3 = target: T4, αvβ3 (Homo sapiens, UniProt P05106+P06756); experiment: Cell attachment assay, K562 transfected with αvβ3; assay type: cell-based
T4 construct: expressed in transfected cells; host or cells: K562
Protocol: (§4) The wells of 96-well plates (Immunolon) were coated, by incubation overnight at 4° C., with 5 μg/ml of vitronectin or osteopontin, 10 μg/ml of fibronectin or 10 mg/ml BSA in PBS. The protein solution was flicked out and the wells were blocked with 10 mg/ml BSA (0.1 ml) for 1-2 hours at 37° C.
as §3
(§5) The number of attached cells was calculated based upon starched curves for each cell line used in the experiment. […] The results presented are the average of triplicate samples and representative of several separate assays.

αvβ5 = target: T5, αvβ5 (Homo sapiens, UniProt P06756+P18084); experiment: Cell attachment assay, HT29; assay type: cell-based
T5 construct: Cells [HT29 (ATOC), HMVEC (Cell Systems), K562 or K562 transfected with αvβ3; endogenous in cells; host or cells: HT29
Protocol: as §4, §3, §5

[6] = Cell attachment IC50, αvβ3, Osteo-Pontin, ligand osteopontin
[7] = Cell attachment IC50, αvβ3, Vitro-nectin, ligand vitronectin
[8] = biotinylated-fibrinogen 10 nM, immobilized GP IIb-IIIa, read-out: IC50 values for the fibrinogen binding assay αIIbβ3
[9] = biotinylated-fibrinogen 10 nM, immobilized placental αvβ3, read-out: IC50 values for the fibrinogen binding assay αvβ3
[10] = HT29, ligand vitronectin, read-out: Cell attachment IC50, αvβ5, Vitro-Nectin
[11] = ligand osteopontin, read-out: Cell attachment IC50, αvβ3, Osteo-Pontin

T3 sequence (P08648 42-894 limits assumed): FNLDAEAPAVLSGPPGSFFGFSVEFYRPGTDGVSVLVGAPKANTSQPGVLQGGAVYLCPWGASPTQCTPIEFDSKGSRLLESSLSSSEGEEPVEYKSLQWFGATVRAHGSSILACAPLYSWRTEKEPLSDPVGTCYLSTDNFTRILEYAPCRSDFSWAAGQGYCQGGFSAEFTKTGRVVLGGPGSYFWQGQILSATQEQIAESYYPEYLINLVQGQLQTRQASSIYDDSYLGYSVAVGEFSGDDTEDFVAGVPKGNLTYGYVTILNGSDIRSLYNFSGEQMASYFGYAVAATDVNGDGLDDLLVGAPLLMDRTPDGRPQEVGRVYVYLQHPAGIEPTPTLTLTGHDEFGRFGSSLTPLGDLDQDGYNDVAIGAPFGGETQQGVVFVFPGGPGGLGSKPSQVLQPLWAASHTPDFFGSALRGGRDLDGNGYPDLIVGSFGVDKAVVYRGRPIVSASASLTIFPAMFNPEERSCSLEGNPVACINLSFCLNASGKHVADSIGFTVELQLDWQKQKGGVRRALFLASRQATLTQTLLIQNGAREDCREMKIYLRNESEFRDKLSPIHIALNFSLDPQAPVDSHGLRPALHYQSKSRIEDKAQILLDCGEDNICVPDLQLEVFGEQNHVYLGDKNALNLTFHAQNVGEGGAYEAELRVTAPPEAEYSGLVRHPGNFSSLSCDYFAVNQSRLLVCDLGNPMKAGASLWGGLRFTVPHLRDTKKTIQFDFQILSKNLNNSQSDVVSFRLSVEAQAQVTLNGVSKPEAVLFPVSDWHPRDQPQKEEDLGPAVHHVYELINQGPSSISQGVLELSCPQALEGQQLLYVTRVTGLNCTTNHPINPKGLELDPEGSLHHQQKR
T3 sequence (P08648 895-1049 partner limits assumed): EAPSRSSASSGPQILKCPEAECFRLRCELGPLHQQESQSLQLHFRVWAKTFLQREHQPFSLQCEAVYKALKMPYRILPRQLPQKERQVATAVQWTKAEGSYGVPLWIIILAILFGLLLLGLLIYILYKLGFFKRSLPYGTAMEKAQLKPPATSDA
T3 sequence (P05556 21-798): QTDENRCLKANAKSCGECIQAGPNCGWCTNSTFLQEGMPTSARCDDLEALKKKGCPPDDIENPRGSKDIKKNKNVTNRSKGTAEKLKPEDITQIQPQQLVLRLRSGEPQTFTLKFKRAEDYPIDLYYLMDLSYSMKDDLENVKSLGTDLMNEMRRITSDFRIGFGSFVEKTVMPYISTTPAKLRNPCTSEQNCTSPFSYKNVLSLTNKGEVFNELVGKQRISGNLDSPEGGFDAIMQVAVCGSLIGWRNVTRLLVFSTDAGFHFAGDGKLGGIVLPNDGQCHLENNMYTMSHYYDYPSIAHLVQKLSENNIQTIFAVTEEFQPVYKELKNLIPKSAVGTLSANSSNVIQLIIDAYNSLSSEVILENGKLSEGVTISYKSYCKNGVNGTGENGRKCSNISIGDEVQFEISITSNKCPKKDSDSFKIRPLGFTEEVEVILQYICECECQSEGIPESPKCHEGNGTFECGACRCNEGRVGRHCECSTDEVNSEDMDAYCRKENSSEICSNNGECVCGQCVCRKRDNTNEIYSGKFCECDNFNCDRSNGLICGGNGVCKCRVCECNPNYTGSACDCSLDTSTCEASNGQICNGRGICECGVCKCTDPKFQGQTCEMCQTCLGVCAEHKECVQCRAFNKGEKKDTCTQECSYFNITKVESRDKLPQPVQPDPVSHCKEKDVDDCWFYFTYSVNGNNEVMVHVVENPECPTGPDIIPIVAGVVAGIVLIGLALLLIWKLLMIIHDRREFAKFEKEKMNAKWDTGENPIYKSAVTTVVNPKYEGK
T1 sequence (P08514 32-887 limits assumed): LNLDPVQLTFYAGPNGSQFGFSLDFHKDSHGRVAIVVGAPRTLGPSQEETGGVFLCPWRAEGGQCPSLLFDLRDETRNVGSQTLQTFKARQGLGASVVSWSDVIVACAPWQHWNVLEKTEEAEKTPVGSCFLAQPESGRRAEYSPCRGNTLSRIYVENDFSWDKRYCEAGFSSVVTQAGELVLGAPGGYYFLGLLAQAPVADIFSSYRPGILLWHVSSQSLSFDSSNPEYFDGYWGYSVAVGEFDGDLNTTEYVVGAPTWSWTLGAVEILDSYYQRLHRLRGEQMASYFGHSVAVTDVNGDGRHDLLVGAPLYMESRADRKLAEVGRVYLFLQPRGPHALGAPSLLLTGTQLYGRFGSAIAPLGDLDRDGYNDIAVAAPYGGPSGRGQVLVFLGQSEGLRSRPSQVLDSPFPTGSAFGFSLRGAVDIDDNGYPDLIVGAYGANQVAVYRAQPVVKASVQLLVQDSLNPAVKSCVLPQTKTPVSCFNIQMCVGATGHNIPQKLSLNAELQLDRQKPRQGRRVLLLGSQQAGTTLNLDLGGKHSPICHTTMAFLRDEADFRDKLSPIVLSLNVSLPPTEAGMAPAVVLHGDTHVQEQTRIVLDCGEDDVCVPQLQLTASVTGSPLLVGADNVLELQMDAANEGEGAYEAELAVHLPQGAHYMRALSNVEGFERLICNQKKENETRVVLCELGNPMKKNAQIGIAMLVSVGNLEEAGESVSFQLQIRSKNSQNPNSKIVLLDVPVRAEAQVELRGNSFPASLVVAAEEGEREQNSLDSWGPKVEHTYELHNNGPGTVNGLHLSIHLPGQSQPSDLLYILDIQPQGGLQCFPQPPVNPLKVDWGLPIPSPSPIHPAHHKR
T1 sequence (P08514 891-1039 partner limits assumed): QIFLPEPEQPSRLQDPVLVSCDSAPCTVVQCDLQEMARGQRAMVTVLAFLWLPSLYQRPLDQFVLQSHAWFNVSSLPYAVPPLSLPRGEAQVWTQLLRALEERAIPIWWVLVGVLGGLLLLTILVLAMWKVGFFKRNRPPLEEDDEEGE
T1 sequence (P05106 27-788): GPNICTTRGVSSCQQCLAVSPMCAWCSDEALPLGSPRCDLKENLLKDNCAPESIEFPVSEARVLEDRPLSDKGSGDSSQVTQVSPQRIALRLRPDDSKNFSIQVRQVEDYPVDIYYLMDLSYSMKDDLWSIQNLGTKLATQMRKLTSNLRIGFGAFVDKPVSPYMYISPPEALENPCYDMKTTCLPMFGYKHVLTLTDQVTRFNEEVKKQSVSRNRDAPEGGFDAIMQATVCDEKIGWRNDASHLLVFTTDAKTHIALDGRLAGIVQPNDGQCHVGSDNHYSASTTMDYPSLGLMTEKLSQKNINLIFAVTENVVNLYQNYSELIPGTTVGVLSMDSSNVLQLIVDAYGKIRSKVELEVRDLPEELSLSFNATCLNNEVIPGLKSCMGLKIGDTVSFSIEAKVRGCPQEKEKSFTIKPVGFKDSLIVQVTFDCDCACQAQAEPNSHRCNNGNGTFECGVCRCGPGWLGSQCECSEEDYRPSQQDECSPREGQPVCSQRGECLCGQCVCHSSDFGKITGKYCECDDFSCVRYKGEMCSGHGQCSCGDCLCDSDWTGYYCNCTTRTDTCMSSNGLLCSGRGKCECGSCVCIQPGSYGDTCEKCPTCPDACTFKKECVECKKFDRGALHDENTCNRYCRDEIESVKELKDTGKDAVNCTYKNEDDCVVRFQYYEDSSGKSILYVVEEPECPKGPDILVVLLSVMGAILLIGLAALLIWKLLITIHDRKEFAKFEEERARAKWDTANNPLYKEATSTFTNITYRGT
T2 sequence (P06756 31-889 limits assumed): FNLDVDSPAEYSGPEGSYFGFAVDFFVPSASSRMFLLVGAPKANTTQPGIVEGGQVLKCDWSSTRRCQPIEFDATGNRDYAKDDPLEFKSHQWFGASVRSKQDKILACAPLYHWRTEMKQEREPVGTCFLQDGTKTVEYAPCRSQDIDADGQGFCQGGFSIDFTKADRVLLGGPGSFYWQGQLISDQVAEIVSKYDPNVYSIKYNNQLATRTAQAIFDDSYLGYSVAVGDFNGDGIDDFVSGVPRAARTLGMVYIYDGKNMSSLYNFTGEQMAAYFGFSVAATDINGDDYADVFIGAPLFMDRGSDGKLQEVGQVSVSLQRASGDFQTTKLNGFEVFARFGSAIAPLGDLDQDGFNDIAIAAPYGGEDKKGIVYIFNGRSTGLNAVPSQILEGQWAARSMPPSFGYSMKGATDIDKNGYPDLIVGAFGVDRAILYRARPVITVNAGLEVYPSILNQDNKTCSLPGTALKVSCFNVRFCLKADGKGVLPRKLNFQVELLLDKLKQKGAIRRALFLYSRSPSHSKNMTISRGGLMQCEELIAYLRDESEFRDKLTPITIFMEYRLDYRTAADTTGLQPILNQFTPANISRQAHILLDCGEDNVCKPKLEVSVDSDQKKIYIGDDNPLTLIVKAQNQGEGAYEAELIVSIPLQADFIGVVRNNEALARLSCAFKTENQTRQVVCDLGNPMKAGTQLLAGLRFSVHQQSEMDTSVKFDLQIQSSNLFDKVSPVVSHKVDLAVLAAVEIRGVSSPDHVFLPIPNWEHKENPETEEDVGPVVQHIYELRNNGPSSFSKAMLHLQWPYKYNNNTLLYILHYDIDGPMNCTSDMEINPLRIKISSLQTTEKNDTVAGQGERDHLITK
T2 sequence (P06756 891-1048 partner limits assumed): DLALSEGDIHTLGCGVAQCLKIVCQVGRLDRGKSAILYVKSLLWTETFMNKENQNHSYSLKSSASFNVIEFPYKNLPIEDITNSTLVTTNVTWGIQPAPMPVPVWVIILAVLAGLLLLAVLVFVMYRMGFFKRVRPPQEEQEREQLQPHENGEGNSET
T2 sequence (P05106 27-788): as the sequence (P05106 27-788) above
T4 sequence (P06756 31-889 limits assumed): as the sequence (P06756 31-889 limits assumed) above
T4 sequence (P06756 891-1048 partner limits assumed): as the sequence (P06756 891-1048 partner limits assumed) above
T4 sequence (P05106 27-788): as the sequence (P05106 27-788) above

IC50 (α5β1) [µM] | IC50 (αvβ5) [µM] | IC50 (GP IIb-IIIa (αIIbβ3); [8]) [µM] | IC50 (placental αvβ3; [9]) [µM] | IC50 (αvβ5; [10]) [µM] | IC50 (αvβ3; [11]) [µM] | Structure (SMILES) | IC50 (GP IIb-IIIa (αIIbβ3)) [µM] | IC50 at 72 h [1] [µM] | IC50 (placental αvβ3) [µM] | IC50 at 72 h [2] [µM] | CAM inhibition of capillary formation ([3]; 3 μg/mesh, +VPF) [%] | CAM inhibition of capillary formation ([3]; 3 μg/mesh, −VPF) [%] | CAM inhibition of capillary formation ([3]; 17 μg/mesh, +VPF) [%] | CAM inhibition of capillary formation ([3]; 17 μg/mesh, −VPF) [%] | CAM inhibition of capillary formation ([3]; 33 μg/mesh, +VPF) [%] | CAM inhibition of capillary formation ([3]; 33 μg/mesh, −VPF) [%] | IC50 at 72 h [4] [µM] | IC50 at 72 h [5] [µM] | IC50 (αvβ3; [6]) [µM] | IC50 (αvβ3; [7]) [µM]
> 10 | > 10 | – | – | – | – | N=C(N)NCCOc1ccc2cc(C(=O)NC[C@H](NS(=O)(=O)c3ccccc3)C(=O)O)cc(=O)n2c1 [Compound XX, (S)-2-Benzenesulfonylamino-3-{[7-(2-guanidino-ethoxy)-4-oxo-4H-quinolizine-2-carbonyl]-amino}-propionic Acid Hydrochloride] | 0.0079 | 35 ± 22 | 0.1 | 21 | – | – | – | – | – | – | 100 | > 100 | 2.3 ± 2 | > 10
> 10 | – | 0.094 | 0.0042 | 3.2 ± 1.6 | 0.16 ± 0.01 | N=C(N)NCC1CCc2cc(C(=O)NCC(NS(=O)(=O)c3ccccc3)C(=O)O)cc(=O)n2C1 [Compound XXIX, (2S, 7R) and (2S, 7S)-2-Benzenesulfonylamino-3-[(7-guanidinomethyl-4-oxo-6,7,8,9-tetrahydro-4H-quinolizine-2-carbonyl)-amino]-propionic Acid] | – | 1 ± 0.2 | – | 23 | 10 | 4 | 12 | 8 | 14 | 13 | 13 | > 100 | – | –
> 10 | – | 0.25 | 0.015 | 5.8 ± 3.6 | 0.43 ± 0.18 | Cl.N=C(N)NCc1ccc2cc(C(=O)NC[C@H](NS(=O)(=O)c3ccccc3)C(=O)O)cc(=O)n2c1 [Compound XXVII, (S)-2-Benzenesulfonylamino-3-[(7-guanidinomethyl-4-oxo-4H-quinolizine-2-carbonyl)-amino]-propionic Acid Hydrochloride] | – | 1.2 ± 0.4 | – | > 100 | 9 | 5 | 12 | 11 | 19 | 16 | > 100 | > 100 | – | –

Structure (SMILES) | IC50 (α5β1) [µM] | IC50 (αvβ5) [µM] | IC50 (GP IIb-IIIa (αIIbβ3); [8]) [µM] | IC50 (placental αvβ3; [9]) [µM] | IC50 (αvβ5; [10]) [µM] | IC50 (αvβ3; [11]) [µM] | IC50 (GP IIb-IIIa (αIIbβ3)) [µM] | IC50 at 72 h [1] [µM] | IC50 (placental αvβ3) [µM] | IC50 at 72 h [2] [µM] | CAM inhibition of capillary formation ([3]; 3 μg/mesh, +VPF) [%] | CAM inhibition of capillary formation ([3]; 3 μg/mesh, −VPF) [%] | CAM inhibition of capillary formation ([3]; 17 μg/mesh, +VPF) [%] | CAM inhibition of capillary formation ([3]; 17 μg/mesh, −VPF) [%] | CAM inhibition of capillary formation ([3]; 33 μg/mesh, +VPF) [%] | CAM inhibition of capillary formation ([3]; 33 μg/mesh, −VPF) [%] | IC50 at 72 h [4] [µM] | IC50 at 72 h [5] [µM] | IC50 (αvβ3; [6]) [µM] | IC50 (αvβ3; [7]) [µM]
N=C(N)NCCCOc1ccc2cc(C(=O)NC[C@H](NS(=O)(=O)c3ccccc3)C(=O)O)cc(=O)n2c1 [Compound XV, (S)-2-Benzenesulfonylamino-3-{[7-(3-guanidino-propoxy)-4-oxo-4H-quinolizine-2-carbonyl]-amino}-propionic Acid Hydrochloride] | > 10 | – | – | – | – | – | 0.0053 | 16 ± 4 | 0.015 | 17 | 7 | 2 | 7 | 9 | 10 | 8 | > 100 | > 100 | 0.5 ± 0.2 | 2.5 ± 1.5

— patent US6630488B1, “Quinolizinones as integrin inhibitors” (Biochem Pharma, Inc., priority 1998, dated 2003)
